US20070093520A1, “Method of treatment of diarrhea-predominant irritable bowel syndrome in a subject” (priority 2005, published 2007)

Tested on: diarrhea-predominant IBS subjects
Experiment: 3007 Study: open-label 52-week safety study, adverse events and withdrawals
Conditions: Placebo/Cilansetron 2 mg

Cc1nccn1C[C@H]1CCc2c(c3cccc4c3n2CCC4)C1=O [cilansetron, (R)-(−)-4,5,6,8,9,10-hexahydro-10-[(2-methyl-1H-imidazol-1-yl)methyl]-11H-pyrido-[3,2,1-jk]-carbazol-11-one]
TEAE: Vomiting NOS: 9 (3%) n (%) | TEAE: Weight Decreased: 1 (<1%) n (%) | TEAE: Weight Increased: 0 n (%) | TEAE: White Blood Cell Analyses: 1 (<1%) n (%) | TEAE: White Blood Cell Count Decreased: 0 n (%) | TEAE: White Blood Cells Urine Positive: 0 n (%) | TEAE leading to permanent discontinuation: Abdominal Distension (N=279): 2 (<1%) n (%) | TEAE leading to permanent discontinuation: Abdominal Pain Aggravated (N=279): 0 n (%) | TEAE leading to permanent discontinuation: Abdominal Pain Lower (N=279): 2 (<1%) n (%) | TEAE leading to permanent discontinuation: Abdominal Pain NOS (N=279): 6 (2%) n (%) | TEAE leading to permanent discontinuation: Abdominal Pain Upper (N=279): 3 (1%) n (%) | TEAE leading to permanent discontinuation: Alanine Aminotransferase Increased (N=279): 0 n (%) | TEAE leading to permanent discontinuation: Angina Pectoris (N=279): 0 n (%) | TEAE leading to permanent discontinuation: Appendicitis (N=279): 0 n (%) | TEAE leading to permanent discontinuation: Asthma Aggravated (N=279): 0 n (%) | TEAE leading to permanent discontinuation: Asthma NOS (N=279): 0 n (%) | TEAE leading to permanent discontinuation: Back Pain (N=279): 1 (<1%) n (%) | TEAE leading to permanent discontinuation: Bladder Prolapse (N=279): 1 (<1%) n (%) | TEAE leading to permanent discontinuation: Blood Bilirubin Increased (N=279): 0 n (%) | TEAE leading to permanent discontinuation: Blood Pressure Increased (N=279): 0 n (%) | TEAE leading to permanent discontinuation: Blood Urine Present (N=279): 0 n (%) | TEAE leading to permanent discontinuation: Bone Neoplasm Malignant (N=279): 0 n (%) | TEAE leading to permanent discontinuation: Cardiac Disorders (N=279): 0 n (%) | TEAE leading to permanent discontinuation: Chest Discomfort (N=279): 1 (<1%) n (%) | TEAE leading to permanent discontinuation: Chest Pain (N=279): 1 (<1%) n (%) | TEAE leading to permanent discontinuation: Chest Wall Pain (N=279): 1 (<1%) n (%) | TEAE leading to permanent discontinuation: Colitis Ischaemic (N=279): 1 (<1%) n (%) | TEAE leading to permanent discontinuation: Constipation (N=279): 21 (8%) n (%) | TEAE leading to permanent discontinuation: Cough (N=279): 1 (<1%) n (%) | TEAE leading to permanent discontinuation: Dehydration (N=279): 0 n (%) | TEAE leading to permanent discontinuation: Depression (N=279): 1 (<1%) n (%) | TEAE leading to permanent discontinuation: Diarrhoea Aggravated (N=279): 1 (<1%) n (%) | TEAE leading to permanent discontinuation: Diarrhoea Haemorrhagic (N=279): 1 (<1%) n (%) | TEAE leading to permanent discontinuation: Diarrhoea NOS (N=279): 2 (<1%) n (%) | TEAE leading to permanent discontinuation: Dizziness (N=279): 2 (<1%) n (%) | TEAE leading to permanent discontinuation: Dyspepsia (N=279): 1 (<1%) n (%) | TEAE leading to permanent discontinuation: Ear and Labyrinth Disorders (N=279): 0 n (%) | TEAE leading to permanent discontinuation: Epigastric Discomfort (N=279): 1 (<1%) n (%) | TEAE leading to permanent discontinuation: Eructation (N=279): 0 n (%) | TEAE leading to permanent discontinuation: Eye Disorders (N=279): 1 (<1%) n (%) | TEAE leading to permanent discontinuation: Faecal Abnormality NOS (N=279): 0 n (%) | TEAE leading to permanent discontinuation: Faecal Impaction (N=279): 1 (<1%) n (%) | TEAE leading to permanent discontinuation: Faecal Incontinence (N=279): 1 (<1%) n (%) | TEAE leading to permanent discontinuation: Faeces Hard (N=279): 0 n (%) | TEAE leading to permanent discontinuation: Fatigue (N=279): 1 (<1%) n (%) | TEAE leading to permanent discontinuation: Fibroma NOS (N=279): 1 (<1%) n (%) | TEAE leading to permanent discontinuation: Flatulence (N=279): 5 (2%) n (%) | TEAE leading to permanent discontinuation: Gastric Irritation (N=279): 0 n (%) | TEAE leading to permanent discontinuation: Gastrointestinal Disorders (N=279): 40 (14%) n (%) | TEAE leading to permanent discontinuation: Gastrointestinal Motility Disorder NOS (N=279): 1 (<1%) n (%) | TEAE leading to permanent discontinuation: General Disorders and Administration Site Conditions (N=279): 4 (1%) n (%) | TEAE leading to permanent discontinuation: Haemorrhoidal Haemorrhage (N=279): 1 (<1%) n (%) | TEAE leading to permanent discontinuation: Hallucination NOS (N=279): 1 (<1%) n (%) | TEAE leading to permanent discontinuation: Hallucination, Auditory (N=279): 1 (<1%) n (%) | TEAE leading to permanent discontinuation: Headache NOS (N=279): 3 (1%) n (%) | TEAE leading to permanent discontinuation: Headache NOS Aggravated (N=279): 0 n (%) | TEAE leading to permanent discontinuation: Heart Rate Increased (N=279): 0 n (%) | TEAE leading to permanent discontinuation: Hepatobiliary Disorders (N=279): 0 n (%) | TEAE leading to permanent discontinuation: Hepatosplenomegaly NOS (N=279): 0 n (%) | TEAE leading to permanent discontinuation: Hiatus Hernia (N=279): 0 n (%) | TEAE leading to permanent discontinuation: Investigations (N=279): 0 n (%) | TEAE leading to permanent discontinuation: Irritable Bowel Syndrome Aggravated (N=279): 0 n (%) | TEAE leading to permanent discontinuation: Lethargy (N=279): 1 (<1%) n (%) | TEAE leading to permanent discontinuation: Metabolism and Nutrition Disorders (N=279): 0 n (%) | TEAE leading to permanent discontinuation: Migraine NOS (N=279): 0 n (%) | TEAE leading to permanent discontinuation: Muscle Cramps (N=279): 0 n (%) | TEAE leading to permanent discontinuation: Musculoskeletal and Connective Tissue Disorders (N=279): 2 (<1%) n (%) | TEAE leading to permanent discontinuation: Nausea (N=279): 0 n (%) | TEAE leading to permanent discontinuation: Neoplasms Benign, Malignant and Unspecified (Incl Cysts and Polyps) (N=279): 3 (1%) n (%) | TEAE leading to permanent discontinuation: Nervous System Disorders (N=279): 4 (1%) n (%) | TEAE leading to permanent discontinuation: Pregnancy, Puerperium and Perinatal Conditions (N=279): 0 n (%) | TEAE leading to permanent discontinuation: Pruritus NOS (N=279): 0 n (%) | TEAE leading to permanent discontinuation: Psychiatric Disorders (N=279): 1 (<1%) n (%) | TEAE leading to permanent discontinuation: Psychotic Disorder NOS (N=279): 1 (<1%) n (%) | TEAE leading to permanent discontinuation: Rash Macular (N=279): 1 (<1%) n (%) | TEAE leading to permanent discontinuation: Rash NOS (N=279): 1 (<1%) n (%) | TEAE leading to permanent discontinuation: Rectal Disorder NOS (N=279): 1 (<1%) n (%) | TEAE leading to permanent discontinuation: Rectal Haemorrhage (N=279): 2 (<1%) n (%) | TEAE leading to permanent discontinuation: Rectal Tenesmus (N=279): 1 (<1%) n (%) | TEAE leading to permanent discontinuation: Renal and Urinary Disorders (N=279): 1 (<1%) n (%) | TEAE leading to permanent discontinuation: Respiratory, Thoracic and Mediastinal Disorders (N=279): 1 (<1%) n (%) | TEAE leading to permanent discontinuation: Skin and Subcutaneous Tissue Disorders (N=279): 3 (1%) n (%) | TEAE leading to permanent discontinuation: Somnolence (N=279): 0 n (%) | TEAE leading to permanent discontinuation: Stomach Discomfort (N=279): 1 (<1%) n (%) | TEAE leading to permanent discontinuation: Suicidal Ideation (N=279): 1 (<1%) n (%)
